From patent US10857245B2, “Diagnostic imaging agent for early bone metastasis from cancer” (NIHON MEDI-PHYSICS CO., LTD., priority 2015, dated 2020)

Tests used:
[1] = test system: bone metastasis from breast cancer cells (MRMT-1); experiment: Triple tracer autoradiography in rat models of intertrabecular and osteolytic bone metastasis from breast cancer; type: in vivo; settings: intertrabecular model day 6 and day 8, osteolytic model day 11 after transplantation; three tracers in an identical rat
Description: MRMT-1 suspension was prepared in the same way as the MRMT-1 suspension prepared in Example 1.
A model of intertrabecular bone metastasis was prepared in the same way as the rat model of osteolytic bone metastasis prepared in Example 1 except that a MRMT-1 suspension was injected into right and left saphenous arteries of the 12-week old male SD rat (Japan SLC, Inc.), which was used for the following experiment at day 6 or day 8 after the transplantation. The lesion appeared only in right hind limb of the model at day 6 after the transplantation and left limb of the model at day 8 after the transplantation.
A model of osteolytic bone metastasis was prepared in the same way as the rat model of osteolytic bone metastasis prepared in Example 1 except that the model was produced from 12-week old male SD rat (Japan SLC, Inc.), and used for the following experiment at day 11 after the transplantation. […]

[2] = test system: bone metastasis from rat breast cancer cell line MRMT-1; experiment: Autoradiography in rat model of osteolytic bone metastasis from breast cancer; type: in vivo; settings: limb transplanted with MRMT-1 (right hind limb), day 12 to 14 after transplantation; tail vein; sacrifice after 30 minutes (^99mTc-HMDP 2 hours)
Description: A rat breast cancer cell line MRMT-1 was obtained from RIKEN BioResource Center. MRMT-1 was subcultured using a medium RPMI1640 (manufactured by Life Technologies Japan Ltd.) with 10% fetal bovine serum (American Type Culture Collection), 100 U/mL penicillin (manufactured by Life Technologies Japan Ltd.), and 0.1 mg/mL streptomycin (manufactured by Life Technologies Japan Ltd). On the day of transplantation, the medium in a culture vessel was removed and Trypsin-EDTA solution (manufactured by Life Technologies Japan Ltd.) maintained at 37° C. was added to the culture vessel, which was left to stand at 37° C. for about 5 minutes. After MRMT-1 was detached from the surface of the culture vessel, the above-mentioned medium was added to the culture vessel in an amount equal to that of Trypsin-EDTA solution. MRMT-1 was precipitated by centrifugation (800 rpm, 5 min) and its supernatant was removed, and a cell suspension in which MRMT-1 was suspended in Hank's buffer (manufactured by Life Technologies Japan Ltd.) at a concentration of 2.5×10^5 cells/mL was then produced.
An anti-inflammatory analgesic, Metacam 0.5% Solution for Injection (manufactured by Boehringer Ingelheim Vetmedica Japan Co., Ltd.) was subcutaneously injected into the groin of the right hind limb of 9-week-old male SD rat (Japan SLC, Inc.) at a rate of 0.2 mg/kg under isoflurane (manufactured by Mylan) anesthesia, and the skin in the groin was then incised. Next, the saphenous artery, the saphenous vein and the nerve parallel thereto were removed from muscles and isolated, and a surgical suture (3-0) was passed under the saphenous artery in the portion distal to the popliteal artery bifurcation. In addition, tissues around the superficial epigastric artery bifurcation were removed and a surgical suture (3-0) was passed under the femoral artery between the superficial epigastric artery bifurcation and the popliteal artery bifurcation (the portion slightly distal to the superficial epigastric artery bifurcation). Subsequently, a few drops of Papaverine Hydrochloride Injection 40 mg (manufactured by Nichi-Iko Pharmaceutical Co., Ltd.) was added dropwise around the saphenous artery to relax vascular smooth muscle, and each end of the surgical suture passed under the saphenous artery and the femoral artery was picked up with forceps, and the saphenous artery and the femoral artery were lifted to compress the arteries. A cotton swab was put under the saphenous artery to retain the saphenous artery, and an injection needle was inserted from the distal portion of the saphenous artery in the central direction, and MRMT-1 suspension (0.1 mL) was slowly injected. […]

[3] = test system: bone metastasis from prostate cancer; experiment: PET/CT imaging of patient with prostate cancer, compared with bone scintigraphy and whole body contrast enhanced CT; settings: untreated patient with prostate cancer; 263.1 MBq intravenously; whole body PET finished by 30 minutes
[4] = test system: bone metastasis from breast cancer; settings: human, in vivo; cited from earlier work

Compound	accumulation in the early focal site of bone metastasis (autoradiogram) [1]	accumulation in bone metastasis in the osteolytic lesion area (autoradiogram, arrow A) [2]	accumulation in bone metastasis prior to the formation of osteolytic lesion, not detectable in X-ray image (autoradiogram, arrow B) [2]	visualization of lesions which were not visualized on bone scintigraphy and whole body contrast enhanced CT [3]	combined sensitivity of all sites [4] [%]	detection rate of osteoblastic bone metastasis [4] [%]	detection rate of osteolytic bone metastasis [4] [%]
N[14C]1(C(=O)O)CC(F)C1 (stereo not drawn) [^14C-fluciclovine, trans-1-amino-3-fluorocyclobutane-1-[^14C]carboxylic acid]	accumulated	accumulated	also accumulated				
N[C@]1(C(=O)O)C[C@@H](F)C1 [^18F-fluciclovine, trans-1-amino-[^18F]fluorocyclobutanecarboxylic acid]				visualized			
technetium[^99mTc]hydroxymethylene diphosphonate [^99mTc-HMDP]	no accumulation	observed in neither	observed in neither		78.2	100	70.0
